Values quoted from earlier work, collected in US20070059740A1, “METHOD OF TARGETING A2B ADENOSINE RECEPTOR ANTAGONIST THERAPY” (priority 2005, published 2007).

Tested on: Zucker rats
Details: A2B adenosine receptor antagonist, reported by LaNoue et al., U.S. Pat. No. 6,060,481

CCCn1c(=O)c2[nH]c(-c3ccc(C=CC(=O)O)cc3)nc2n(CCC)c1=O [1,3-dipropyl-8-(p-acrylic)-phenylxanthine]
glucose tolerance: improves glucose tolerance
